{"source": "patent US20230339878A1", "about": "“SLC26A3 INHIBITORS AND USE THEREOF” (THE REGENTS OF THE UNIVERSITY OF CALIFORNIA, priority 2018, published 2023)", "key": {"pendrin (slc26a4)": {"molecular_target": "T1, pendrin (slc26a4) (Mus musculus, UniProt Q9R155)", "T1 construct": "expressed in transfected cells; host or cells: FRT cells expressing YFP and slc26a4", "T1 sequence (Q9R155 1-780)": "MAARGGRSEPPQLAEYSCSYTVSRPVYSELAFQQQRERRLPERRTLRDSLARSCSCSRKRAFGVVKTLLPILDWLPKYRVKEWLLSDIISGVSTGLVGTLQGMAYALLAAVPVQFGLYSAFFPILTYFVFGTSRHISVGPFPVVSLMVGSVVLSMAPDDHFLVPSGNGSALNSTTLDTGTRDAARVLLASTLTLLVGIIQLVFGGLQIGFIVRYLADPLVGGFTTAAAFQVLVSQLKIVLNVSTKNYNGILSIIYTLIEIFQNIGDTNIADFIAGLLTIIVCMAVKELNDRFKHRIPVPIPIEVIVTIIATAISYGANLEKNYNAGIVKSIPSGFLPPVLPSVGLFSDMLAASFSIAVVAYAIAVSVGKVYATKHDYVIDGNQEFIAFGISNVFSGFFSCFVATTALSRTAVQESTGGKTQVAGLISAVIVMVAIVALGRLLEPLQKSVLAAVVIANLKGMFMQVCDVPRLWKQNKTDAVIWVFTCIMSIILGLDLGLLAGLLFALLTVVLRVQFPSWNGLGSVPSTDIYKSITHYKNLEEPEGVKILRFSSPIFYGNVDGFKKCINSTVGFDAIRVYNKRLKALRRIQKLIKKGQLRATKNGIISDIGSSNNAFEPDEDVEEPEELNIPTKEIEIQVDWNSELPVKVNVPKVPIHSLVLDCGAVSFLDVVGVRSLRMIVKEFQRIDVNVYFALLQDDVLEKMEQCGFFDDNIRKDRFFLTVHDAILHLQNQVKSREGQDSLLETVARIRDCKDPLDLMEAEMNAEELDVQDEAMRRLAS", "assay": "Selectivity: pendrin-mediated Cl-/I- exchange, YFP assay", "format": "cell-based, murine", "conditions": "10 µM", "source_text": "(§1) To investigate Compound A1 selectivity, transport assays were done on a panel of SLC26-family homologs, and other relevant epithelial ion transporters and channels. […] In separate studies, to investigate possible action of Compound A1 on multiple ion transporters and channels in a human epithelium, human bronchial epithelial (HBE) cells were studied by short-circuit current, with successive additions of amiloride (to block the epithelial sodium channel ENaC), forskolin, CFTRinh-172 (to block CFTR), and ATP (to activate the Ca^2+-activated chloride channel, CaCC) (FIG. 5C).\n(§2) YFP-based assays of CFTR, pendrin and TMEM16A were as described. HEK cells transfected to express YFP and SLC26A3, slc26a6 or slc26a9 were functionally assayed using a Cl^-/I^- exchange protocol. Assays of Cl^-/HCO3^- exchange were done using BCECF as an intracellular pH indicator as described for pendrin. […]\n(§3) HEK293 cells transfected with pIRES-YFP-slc26a9 were plated in 96-well black-walled, clear-bottom tissue culture plates (Corning Life Sciences, Tewksbury, MA) after coating with FNC Coating Mix (AthenaES, Baltimore, MD). […] Assays of slc26a9-mediated anion exchange were done by initially recording YFP fluorescence prior to addition of 100 µL of NaI-substituted PBS to test wells, with the initial rate of Cl^-/I^- exchange deduced from fluorescence intensity by single exponential regression. […]"}, "CFTR": {"molecular_target": "T2, CFTR (Homo sapiens, UniProt P13569)", "T2 construct": "expressed in transfected cells; host or cells: FRT cells expressing YFP and CFTR", "T2 sequence (P13569 whole entry, species assumed)": "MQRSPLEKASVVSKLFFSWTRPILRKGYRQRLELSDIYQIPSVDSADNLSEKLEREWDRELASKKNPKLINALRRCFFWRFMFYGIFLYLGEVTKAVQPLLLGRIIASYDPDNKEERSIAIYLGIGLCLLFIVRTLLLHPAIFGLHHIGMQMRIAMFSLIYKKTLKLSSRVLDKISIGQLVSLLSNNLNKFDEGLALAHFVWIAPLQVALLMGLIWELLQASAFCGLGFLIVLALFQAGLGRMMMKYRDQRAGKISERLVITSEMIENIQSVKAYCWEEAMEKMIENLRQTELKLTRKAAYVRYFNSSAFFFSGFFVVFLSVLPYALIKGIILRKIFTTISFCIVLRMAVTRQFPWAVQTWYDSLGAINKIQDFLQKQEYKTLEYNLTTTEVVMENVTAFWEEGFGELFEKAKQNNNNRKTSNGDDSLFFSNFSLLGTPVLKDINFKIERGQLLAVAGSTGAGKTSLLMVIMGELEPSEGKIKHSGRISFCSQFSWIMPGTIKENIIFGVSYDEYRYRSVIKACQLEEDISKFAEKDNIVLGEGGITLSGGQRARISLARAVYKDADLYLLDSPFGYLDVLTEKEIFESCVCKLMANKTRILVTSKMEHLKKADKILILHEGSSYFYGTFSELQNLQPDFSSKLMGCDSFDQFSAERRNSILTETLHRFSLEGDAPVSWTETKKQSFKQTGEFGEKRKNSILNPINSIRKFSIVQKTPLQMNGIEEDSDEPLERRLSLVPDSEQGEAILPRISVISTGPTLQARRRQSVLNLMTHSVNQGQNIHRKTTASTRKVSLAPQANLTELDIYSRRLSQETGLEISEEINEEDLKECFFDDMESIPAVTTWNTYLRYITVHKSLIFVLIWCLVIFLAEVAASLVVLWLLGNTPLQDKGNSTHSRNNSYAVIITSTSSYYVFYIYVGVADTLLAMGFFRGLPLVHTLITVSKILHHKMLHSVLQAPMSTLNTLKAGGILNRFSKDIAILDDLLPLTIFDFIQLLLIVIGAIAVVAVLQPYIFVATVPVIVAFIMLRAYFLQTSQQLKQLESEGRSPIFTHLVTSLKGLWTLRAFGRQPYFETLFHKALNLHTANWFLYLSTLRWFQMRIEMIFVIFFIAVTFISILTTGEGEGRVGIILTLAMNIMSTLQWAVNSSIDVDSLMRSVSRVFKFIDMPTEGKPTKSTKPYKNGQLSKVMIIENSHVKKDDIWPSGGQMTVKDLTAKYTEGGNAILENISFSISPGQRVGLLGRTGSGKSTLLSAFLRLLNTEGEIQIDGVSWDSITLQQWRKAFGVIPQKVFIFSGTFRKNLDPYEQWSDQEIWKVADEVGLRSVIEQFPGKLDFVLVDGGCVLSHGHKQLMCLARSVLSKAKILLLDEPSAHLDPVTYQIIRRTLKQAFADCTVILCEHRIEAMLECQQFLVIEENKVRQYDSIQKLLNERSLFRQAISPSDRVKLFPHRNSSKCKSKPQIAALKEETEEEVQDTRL", "assay": "Selectivity: CFTR (forskolin stimulated) YFP assay", "format": "cell-based", "conditions": "10 µM", "source_text": "as §1, §2, §3"}, "[1]": {"system": "ENaC, CFTR or CaCC activity in human bronchial epithelial (HBE) cells", "assay": "Short-circuit current in well-differentiated HBE cells", "format": "cell-based", "conditions": "10 µM, pre-treatment 20 min; amiloride, forskolin, CFTRinh-172, ATP additions", "source_text": "as §1\nHEK293 cells transfected with pIRES-YFP-slc26a9 were plated in 96-well black-walled, clear-bottom tissue culture plates (Corning Life Sciences, Tewksbury, MA) after coating with FNC Coating Mix (AthenaES, Baltimore, MD). […] Assays of slc26a9-mediated anion exchange were done by initially recording YFP fluorescence prior to addition of 100 µL of NaI-substituted PBS to test wells, with the initial rate of Cl^-/I^- exchange deduced from fluorescence intensity by single exponential regression. […] To assay SLC26A3 function, HEK293 cells transduced with lentiviral particles generated from the pLVX-IRES-mCherry-SLC26A3 transfer vector were transfected to express YFP for Cl^-/I^- exchange assays as described above; red fluorescence images were acquired to confirm SLC26A3 expression in cells. […]"}}, "note": "“Also recorded” adds a separate entry of the source."}
{"smiles": "Cc1c(CC(=O)O)c(=O)oc2c(C)c(OCc3cccc(Br)c3)ccc12", "note": "[Compound A1]", "values": [{"measurement": "effect on Cl-/I- exchange activity of pendrin (slc26a4)", "setting": "pendrin (slc26a4)", "value": "did not alter; also recorded: did not inhibit; also recorded: differences not significant"}, {"measurement": "effect on activity of CFTR", "setting": "CFTR", "value": "did not alter the activity; also recorded: differences not significant"}, {"measurement": "effect on short-circuit current responses", "setting": "[1]", "value": "did not alter short-circuit current responses; also recorded: differences not significant"}]}
